Reference: ChEMBL document CHEMBL1201862, “PubChem BioAssay data set” (2004)
The source made the active and inactive calls.

What was measured:
cells [1] = assay type: functional, cell-based
cells [2] = assay type: functional, cell-based; remark: listed apart in the source
cells [3] = assay type: functional, cell-based; remark: listed apart in the source
cells [4] = assay type: functional, cell-based; remark: listed apart in the source
Galanin receptor type 3 = Galanin receptor type 3 (Homo sapiens, UniProt O60755); assay: Fluorescence-based cell-based primary high throughput dose response assay to identify antagonists of the Galanin Receptor 3 (GalR3).; assay type: functional
cells [5] = assay type: functional, cell-based; details: HEK-CNG
[6] = target: T1, Endoribonuclease toxin MazF (Escherichia coli K-12, UniProt P0AE70); assay: activation of MazEF endoribonuclease cleavage – biochemical, fluorescence, single-stranded RNA substrate, uHTS hits, dose response (AID 588481); assay type: functional
T1 sequence (P0AE70 whole entry): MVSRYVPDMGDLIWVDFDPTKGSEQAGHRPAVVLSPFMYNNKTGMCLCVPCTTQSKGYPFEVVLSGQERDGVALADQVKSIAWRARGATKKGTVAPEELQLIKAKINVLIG

[7] = target: T1, Endoribonuclease toxin MazF; assay: substrate-only fluorescence increase artefacts – biochemical, single-stranded RNase substrate, counter-screen for MazEF activator project, dose response (AID 588502); assay type: functional
[8] = target: T2, Sentrin-specific protease 1 (Homo sapiens, UniProt Q9P0U3); assay: Dose response confirmation of small molecule inhibitors of the catalytic domain of the SUMO protease, SENP1 in a FRET assay.; assay type: functional; details: read-out: IC50_Mean
T2 sequence (Q9P0U3 whole entry): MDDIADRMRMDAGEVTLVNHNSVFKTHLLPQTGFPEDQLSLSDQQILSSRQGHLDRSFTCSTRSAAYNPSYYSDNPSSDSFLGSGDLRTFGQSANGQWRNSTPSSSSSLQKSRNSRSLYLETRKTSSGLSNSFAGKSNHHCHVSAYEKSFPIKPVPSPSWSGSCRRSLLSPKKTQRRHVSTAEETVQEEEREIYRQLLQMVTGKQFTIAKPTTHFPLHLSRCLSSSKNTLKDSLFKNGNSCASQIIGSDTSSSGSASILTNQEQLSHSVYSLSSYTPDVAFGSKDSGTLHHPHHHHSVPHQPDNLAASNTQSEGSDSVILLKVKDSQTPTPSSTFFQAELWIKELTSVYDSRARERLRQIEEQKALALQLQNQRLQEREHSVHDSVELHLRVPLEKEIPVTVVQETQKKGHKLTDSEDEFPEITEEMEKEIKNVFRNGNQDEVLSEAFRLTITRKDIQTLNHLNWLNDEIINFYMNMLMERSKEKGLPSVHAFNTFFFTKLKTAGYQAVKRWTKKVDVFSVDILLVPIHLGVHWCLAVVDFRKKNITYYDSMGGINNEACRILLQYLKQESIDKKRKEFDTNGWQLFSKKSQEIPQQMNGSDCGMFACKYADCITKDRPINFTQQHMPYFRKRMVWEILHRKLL

[9] = general mammalian cell viability loss – activator set, cherry-pick, cytotoxicity control for miR-122 modulator project, dose response (AID 720690); assay type: functional, cell-based;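 further: HEK293T human cells scored for general mammalian cytotoxicity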
[10] = general mammalian cell viability loss – inhibitor set, cherry-pick, set 2, cytotoxicity control for miR-122 modulator project, dose response (AID 720697); assay type: functional, cell-based
[11] = viability loss in HeLa cells – cytotoxicity control for MgcRacGAP inhibitor project, dose response (AID 624300); assay type: functional
[12] = target: T3, Rac GTPase-activating protein 1 (Homo sapiens, UniProt Q9H0H5); assay: blockers of MgcRacGAP-driven Rac1 GTP hydrolysis – biochemical, ADP Hunter fluorescence, primary and confirmatory, confirmation (AID 624330); assay type: functional
T3 sequence (Q9H0H5 whole entry): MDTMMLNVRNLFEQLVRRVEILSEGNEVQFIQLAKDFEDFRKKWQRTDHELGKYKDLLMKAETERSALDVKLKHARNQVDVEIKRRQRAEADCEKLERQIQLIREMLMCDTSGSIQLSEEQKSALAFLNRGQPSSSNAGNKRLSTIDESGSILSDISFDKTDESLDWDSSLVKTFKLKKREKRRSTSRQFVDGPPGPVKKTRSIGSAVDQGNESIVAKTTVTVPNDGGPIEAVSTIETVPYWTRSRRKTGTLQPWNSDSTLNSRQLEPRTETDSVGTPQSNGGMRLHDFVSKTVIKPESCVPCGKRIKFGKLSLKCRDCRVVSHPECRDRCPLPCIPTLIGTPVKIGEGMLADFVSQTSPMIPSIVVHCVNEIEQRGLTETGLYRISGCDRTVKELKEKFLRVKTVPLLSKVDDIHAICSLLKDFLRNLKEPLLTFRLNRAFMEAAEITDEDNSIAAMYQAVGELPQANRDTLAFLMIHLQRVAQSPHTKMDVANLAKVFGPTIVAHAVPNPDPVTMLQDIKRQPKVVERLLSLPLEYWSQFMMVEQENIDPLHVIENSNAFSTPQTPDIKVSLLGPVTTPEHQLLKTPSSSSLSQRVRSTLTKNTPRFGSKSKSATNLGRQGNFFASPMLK

[13] = bead-based luminescence quenchers, dual-tagged ARNT – biochemical, AlphaScreen, cherry-pick, artefact control for ARNT-TACC3 interaction inhibitor project, dose response (AID 651705); assay type: functional;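 further: AlphaScreen bead proximity signal that flags compounds interfering with the detection technology; potency reflects signal decrease which marks the compound as an assay artifact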
[14] = target: T4, Histone-lysine N-methyltransferase NSD2 (Homo sapiens, UniProt O96028); assay type: biochemical
T4 sequence (O96028 whole entry): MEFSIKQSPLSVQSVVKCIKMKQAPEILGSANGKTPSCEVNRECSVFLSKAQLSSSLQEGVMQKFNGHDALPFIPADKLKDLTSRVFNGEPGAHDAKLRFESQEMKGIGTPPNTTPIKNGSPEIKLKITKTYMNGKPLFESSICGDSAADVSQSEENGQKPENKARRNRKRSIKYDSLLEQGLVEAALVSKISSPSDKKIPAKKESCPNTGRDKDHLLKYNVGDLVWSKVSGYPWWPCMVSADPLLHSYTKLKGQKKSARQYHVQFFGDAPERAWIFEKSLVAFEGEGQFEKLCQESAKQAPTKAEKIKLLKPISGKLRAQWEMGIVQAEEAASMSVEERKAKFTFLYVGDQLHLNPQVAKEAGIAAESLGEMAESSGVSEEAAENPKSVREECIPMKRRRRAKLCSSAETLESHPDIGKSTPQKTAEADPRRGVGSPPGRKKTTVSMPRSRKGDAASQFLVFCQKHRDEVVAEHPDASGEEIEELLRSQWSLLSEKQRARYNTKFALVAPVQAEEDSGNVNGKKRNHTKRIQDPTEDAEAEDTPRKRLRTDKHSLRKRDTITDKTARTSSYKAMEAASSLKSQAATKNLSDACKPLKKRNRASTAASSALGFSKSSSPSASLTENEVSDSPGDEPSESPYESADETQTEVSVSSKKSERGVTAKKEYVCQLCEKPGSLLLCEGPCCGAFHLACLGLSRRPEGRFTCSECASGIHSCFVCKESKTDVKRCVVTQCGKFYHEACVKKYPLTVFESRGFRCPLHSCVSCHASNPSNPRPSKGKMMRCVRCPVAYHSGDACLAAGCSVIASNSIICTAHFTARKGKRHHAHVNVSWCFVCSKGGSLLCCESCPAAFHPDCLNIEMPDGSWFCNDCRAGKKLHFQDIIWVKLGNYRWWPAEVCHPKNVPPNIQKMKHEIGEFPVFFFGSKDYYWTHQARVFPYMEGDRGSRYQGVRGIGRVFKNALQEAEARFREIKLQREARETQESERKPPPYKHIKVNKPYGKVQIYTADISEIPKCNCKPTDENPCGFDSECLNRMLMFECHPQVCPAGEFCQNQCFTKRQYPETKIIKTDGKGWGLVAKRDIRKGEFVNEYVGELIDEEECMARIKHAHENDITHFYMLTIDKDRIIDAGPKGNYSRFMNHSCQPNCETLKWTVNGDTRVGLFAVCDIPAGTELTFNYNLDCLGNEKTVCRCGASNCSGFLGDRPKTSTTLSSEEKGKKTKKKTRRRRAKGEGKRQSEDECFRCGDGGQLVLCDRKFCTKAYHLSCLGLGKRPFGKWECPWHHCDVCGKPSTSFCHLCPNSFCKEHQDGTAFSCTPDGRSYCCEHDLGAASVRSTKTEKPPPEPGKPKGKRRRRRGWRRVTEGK

[15] = target: T5, Tyrosyl-DNA phosphodiesterase 2 (Homo sapiens, UniProt O95551); assay: potency against TDP2 phosphodiesterase activity – biochemical, epi absorbance, IC50, dose response (AID 743297)
T5 sequence (O95551 whole entry): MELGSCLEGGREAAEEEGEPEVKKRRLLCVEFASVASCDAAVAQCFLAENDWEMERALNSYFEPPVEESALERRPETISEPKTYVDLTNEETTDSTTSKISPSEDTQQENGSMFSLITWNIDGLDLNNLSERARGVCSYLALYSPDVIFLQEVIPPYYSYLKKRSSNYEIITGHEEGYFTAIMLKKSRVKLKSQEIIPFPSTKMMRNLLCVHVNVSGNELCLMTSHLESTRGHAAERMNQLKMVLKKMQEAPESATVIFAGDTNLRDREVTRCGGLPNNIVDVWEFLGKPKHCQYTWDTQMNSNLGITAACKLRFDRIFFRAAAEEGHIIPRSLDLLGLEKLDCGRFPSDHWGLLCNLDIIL

Galanin receptor type 3, sequence (O60755 whole entry): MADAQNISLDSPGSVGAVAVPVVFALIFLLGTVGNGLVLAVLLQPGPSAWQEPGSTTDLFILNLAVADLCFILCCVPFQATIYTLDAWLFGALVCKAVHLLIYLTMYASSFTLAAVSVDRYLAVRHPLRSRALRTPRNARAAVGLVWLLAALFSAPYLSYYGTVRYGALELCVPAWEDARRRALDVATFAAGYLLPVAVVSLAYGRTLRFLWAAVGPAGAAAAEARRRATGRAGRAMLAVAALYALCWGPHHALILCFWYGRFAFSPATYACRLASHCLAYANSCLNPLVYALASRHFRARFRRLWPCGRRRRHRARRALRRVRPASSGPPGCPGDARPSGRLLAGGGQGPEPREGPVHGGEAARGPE

With CCN1CN(CCc2ccccc2)CN=C1S the EC50 (cells [1]) was > 350 µM (not active), the EC50 (cells [2]) was > 350 µM (not active) and the IC50 (cells [3]) was > 29.9 µM (inactive). For the same compound, the EC50 (cells [4]) was > 29.9 µM (inactive).
In the case of CSc1ccc(CN2CCN(C(=O)c3ccc([N+](=O)[O-])cc3)CC2)cc1, the IC50 (Galanin receptor type 3) is reported as 1.91 µM (active) and the EC50 (cells [5]) is reported as > 29.9 µM (inactive).
In the case of Oc1ccc(Cl)cc1C1=Nc2ccccc2N=C(c2ccco2)C1, the EC50 [6] is reported as > 99 µM (inactive), the EC50 [7] is reported as > 99 µM (inactive) and the IC50 [8] is reported as 8.31 µM (active).
For CC(=O)c1ccc(Nc2nc3ccc(C)cc3n3cnnc23)cc1, the AC50 [9] was 0.551 µM (active).
For C=CCNC(=S)NNC(=O)Cn1c(-c2ccccc2)cc(=O)n2ncnc12, the AC50 [10] was 4.83 µM (active).
With COc1cc(CCNC2=CC(=O)c3ncccc3C2=O)ccc1O the CC50 [11] was 21.3 µM (active), the IC50 [12] was 62.2 µM (active) and the AC50 [13] was 82.2 µM (active). The AC50 [14] was 1.24 µM (active) and the IC50 [15] was 67.8 µM (inactive).
